Data on 24 compounds can be found in patent US20230391786A1, “cGAS INHIBITORS” (Eli Lilly and Company, priority 2022, published 2023).

Read-outs that look alike come from different tables or passages of the source.

One assay has as its target recombinant human cGAS (Homo sapiens (Human), UniProt Q8N884). The assay is described as follows: In vitro inhibition assay of cGAS activity (cGAMP production, RapidFire mass spectrometry). It is filed as biochemical. Conditions: 10 nM recombinant human cGAS, 60 nM 75-bp dsDNA, ATP, GTP, room temperature 3 hours, read-out: IC50 (μM), In vitro inhibition assay for Compounds 95-348. In outline:
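Product cGAMP was quantified by RapidFire MS against a difluoro-cGAMP internal standard after a formic acid quench. The reaction contained 10 nM recombinant full-length human cGAS, 75-bp dsDNA (60 nM), ATP and GTP (50 μM) and ran for 3 h at room temperature. IC50 values came from 4-parameter nonlinear regression.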

Assay [1] concerns cGAS activity in THP1 cells (IFNb as marker). The assay is described as follows: Cellular assay to measure cGAS activity (IFNb production in PMA-differentiated THP1 cells stimulated by RDG-Adenovirus-GFP). Type of assay: cell-based, human. To be noted: Homo sapiens. In outline:
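The readout is secreted IFNb measured by AlphaLISA after overnight compound exposure. THP1 cells, differentiated with PMA for 24 h and rested overnight, were infected with RDG-Adenovirus-GFP (1000 MOI, 4 h) before compounds were added; IC50 came from a 4-parameter logistic fit of inhibition against log concentration.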

The mark [2] stands for this setting: THP-1, THP1 cells, PMA differentiated, RDG-Adenovirus-GFP 1000 MOI, IFNb AlphaLISA, overnight incubation, read-out: IC50 (μM), Cellular assay for Compounds 95-348.

Chain of recombinant human cGAS (Q8N884 whole entry): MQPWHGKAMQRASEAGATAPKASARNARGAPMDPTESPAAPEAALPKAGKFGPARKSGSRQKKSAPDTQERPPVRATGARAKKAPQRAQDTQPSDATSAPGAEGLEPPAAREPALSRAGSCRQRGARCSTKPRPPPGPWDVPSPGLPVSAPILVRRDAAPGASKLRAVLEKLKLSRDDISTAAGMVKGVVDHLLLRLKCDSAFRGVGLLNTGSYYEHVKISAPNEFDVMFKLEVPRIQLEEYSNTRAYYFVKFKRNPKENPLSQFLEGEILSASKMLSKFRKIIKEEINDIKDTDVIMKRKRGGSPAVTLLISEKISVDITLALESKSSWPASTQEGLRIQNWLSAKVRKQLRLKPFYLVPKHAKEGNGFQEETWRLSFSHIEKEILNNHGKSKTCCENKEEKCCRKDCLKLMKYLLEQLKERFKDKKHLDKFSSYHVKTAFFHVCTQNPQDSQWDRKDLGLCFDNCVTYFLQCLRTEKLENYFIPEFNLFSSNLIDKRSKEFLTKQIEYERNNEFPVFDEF

Regarding `O=C(CO)NCc1[nH]c2c(Cl)c(Cl)ccc2c1-c1cn[nH]c1` [Example 162, N-[[6,7-Dichloro-3-(1H-pyrazol-4-yl)-1H-indol-2-yl]methyl]-2-hydroxy-acetamide], the concentration for half-maximal inhibition (IC50) (as a rule, the midpoint of a concentration-inhibition curve) amounted to 0.0152 µM at recombinant human cGAS and 0.761 µM in assay [1] (setting [2]).

As to `CCC(=O)NCc1[nH]c2c(Cl)c(Cl)ccc2c1-c1cn[nH]c1` [Example 163, N-[[6,7-Dichloro-3-(1H-pyrazol-4-yl)-1H-indol-2-yl]methyl]propanamide], the figures for the IC50 (at recombinant human cGAS; in assay [1] (setting [2])) were 0.076 µM and 2.09 µM, respectively.

As to `NC(=O)NCc1[nH]c2c(Cl)c(Cl)ccc2c1-c1cn[nH]c1` [Example 164, [6,7-Dichloro-3-(1H-pyrazol-4-yl)-1H-indol-2-yl]methylurea], the figures for the IC50 (on recombinant human cGAS; in assay [1] (setting [2])) were 0.0543 µM and 1.34 µM, respectively.

Take `O=C(NCc1[nH]c2c(Cl)c(Cl)ccc2c1-c1cn[nH]c1)c1nnco1` [Example 165, N-[[6,7-Dichloro-3-(1H-pyrazol-4-yl)-1H-indol-2-yl]methyl]-1,3,4-oxadiazole-2-carboxamide]: the figures for the IC50 (at recombinant human cGAS; in assay [1] (setting [2])) were 0.0894 µM and 1.32 µM, respectively.

For `Cn1cc(-n2c(CO)c(-c3cn[nH]c3)c3ccc(Cl)c(Cl)c32)nn1` [Example 166, [6,7-Dichloro-1-(1-methyltriazol-4-yl)-3-(1H-pyrazol-4-yl)indol-2-yl]methanol], the IC50 at recombinant human cGAS came to 0.0931 µM; in assay [1] (setting [2]) it was 2.83 µM.

With `C[C@@H](O)C(=O)NCc1[nH]c2c(Cl)c(Cl)ccc2c1-c1cn[nH]c1` [Example 167, (R)—N-((6,7-Dichloro-3-(1H-pyrazol-4-yl)-1H-indol-2-yl)methyl)-2-hydroxypropanamide], the IC50 on recombinant human cGAS stood at 0.0672 µM; in assay [1] (setting [2]), 1.86 µM.

Turning to `C[C@H](O)C(=O)NCc1[nH]c2c(Cl)c(Cl)ccc2c1-c1cn[nH]c1` [Example 168, (S)—N-((6,7-Dichloro-3-(1H-pyrazol-4-yl)-1H-indol-2-yl)methyl)-2-hydroxypropanamide], the results for the IC50 (on recombinant human cGAS; in assay [1] (setting [2])) were 0.0463 µM and 1 µM, respectively.

As to `O=C(Nc1cc(Cl)c(Cl)c2[nH]cc(-c3cn[nH]c3)c12)C(F)(F)CO` [Example 169, N-(6,7-Dichloro-3-(1H-pyrazol-4-yl)-1H-indol-4-yl)-2,2-difluoro-3-hydroxypropanamide], the figures for the IC50 (at recombinant human cGAS; in assay [1] (setting [2])) were 0.0138 µM and 0.656 µM, respectively.

Turning to `O=C(CF)Nc1cc(Cl)c(Cl)c2[nH]cc(-c3cn[nH]c3)c12` [Example 170, N-(6,7-Dichloro-3-(1H-pyrazol-4-yl)-1H-indol-4-yl)-2-fluoroacetamide], the IC50 on recombinant human cGAS was determined as 0.00567 µM; in assay [1] (THP-1, read-out: IC50 (μM), Cellular assay for Compounds 95-348) it was 0.129 µM.

For the compound `O=C(Nc1cc(Cl)c(Cl)c2[nH]cc(-c3cn[nH]c3)c12)C(F)F` [Example 171, N-[6,7-Dichloro-3-(1H-pyrazol-4-yl)-1H-indol-4-yl]-2,2-difluoro-acetamide], the 50% inhibitory concentration (IC50) at recombinant human cGAS was found to be 0.00356 µM; in assay [1] (setting [2]), 0.0689 µM.

Turning to `O=C(Nc1cc(Cl)c(F)c2c1c(-c1cn[nH]c1)cn2-c1cn(CCO)nn1)C(F)F` [Example 172, N-[6-Chloro-7-fluoro-1-[1-(2-hydroxyethyl)triazol-4-yl]-3-(1H-pyrazol-4-yl)indol-4-yl]-2,2-difluoro-acetamide], the half-maximal inhibitory concentration (IC50) on recombinant human cGAS is 0.0341 µM; in assay [1] (setting [2]), 0.651 µM.

As to `OCCCNc1cc(Cl)c(F)c2c1c(-c1cn[nH]c1)cn2-c1cn(CCO)nn1` [Example 173, 3-[[6-Chloro-7-fluoro-1-[1-(2-hydroxyethyl)triazol-4-yl]-3-(1H-pyrazol-4-yl)indol-4-yl]amino]propan-1-ol], the IC50 on recombinant human cGAS is 0.0145 µM; in assay [1] (setting [2]), 0.466 µM.

With `Clc1cc(NC2COC2)c2c(-c3cn[nH]c3)c[nH]c2c1Cl` [Example 177, 6,7-Dichloro-N-(oxetan-3-yl)-3-(1H-pyrazol-4-yl)-1H-indol-4-amine], the IC50 on recombinant human cGAS was 0.0245 µM; in assay [1] (setting [2]), 1.13 µM.

Take `O=C(Cc1[nH]c2c(Cl)c(Cl)ccc2c1-c1cn[nH]c1)NCc1cc[nH]n1` [Example 178, 2-[6,7-Dichloro-3-(1H-pyrazol-4-yl)-1H-indol-2-yl]-N-(1H-pyrazol-3-ylmethyl) acetamide]: the values for the IC50 (at recombinant human cGAS; in assay [1] (setting [2])) were 0.0413 µM and 3.62 µM, respectively.

For the compound `O=C1NCC(C(=O)N2CCn3c(c(-c4cn[nH]c4)c4ccc(Cl)c(Cl)c43)C2)O1` (stereo not drawn) [Example 180, 5-[6,7-Dichloro-10-(1H-pyrazol-4-yl)-3,4-dihydro-1H-pyrazino[1,2-a]indole-2-carbonyl]oxazolidin-2-one], the IC50 was found to be 0.018 µM on recombinant human cGAS and 1.85 µM in assay [1] (setting [2]).

Turning to `CN(C)C(=O)NCC(=O)N1CCn2c(c(-c3cn[nH]c3)c3ccc(Cl)c(Cl)c32)C1` [Example 182, 3-[2-[6,7-Dichloro-10-(1H-pyrazol-4-yl)-3,4-dihydro-1H-pyrazino[1,2-a]indol-2-yl]-2-oxo-ethyl]-1,1-dimethyl-urea], the IC50 is 0.0416 µM at recombinant human cGAS and > 10 µM in assay [1] (setting [2]).

As for `FCCOc1cc(Cl)c(Cl)c2[nH]cc(-c3cn[nH]c3)c12` [Example 183, 6,7-Dichloro-4-(2-fluoroethoxy)-3-(1H-pyrazol-4-yl)-1H-indole], the IC50 turned out to be 0.0118 µM at recombinant human cGAS and 0.875 µM in assay [1] (setting [2]).

`FC(F)COc1cc(Cl)c(Cl)c2[nH]cc(-c3cn[nH]c3)c12` [Example 184, 6,7-Dichloro-4-(2,2-difluoroethoxy)-3-(1H-pyrazol-4-yl)-1H-indole]: the IC50 on recombinant human cGAS worked out at 0.0385 µM; in assay [1] (setting [2]), 1.13 µM.

In the case of `O=C(Nc1cc(Cl)c(Cl)c2[nH]cc(-c3cn[nH]c3)c12)C(O)CO` (stereo not drawn) [Example 185, N-[6,7-Dichloro-3-(1H-pyrazol-4-yl)-1H-indol-4-yl]-2,3-dihydroxy-propanamide], the IC50 on recombinant human cGAS is 0.077 µM; in assay [1] (setting [2]), 3.44 µM.

On to `OCC(F)(F)CNc1cc(Cl)c(Cl)c2[nH]cc(-c3cn[nH]c3)c12` [Example 186, 3-[[6,7-Dichloro-3-(1H-pyrazol-4-yl)-1H-indol-4-yl]amino]-2,2-difluoro-propan-1-ol], for which the IC50 was determined as 0.0127 µM at recombinant human cGAS and 0.909 µM in assay [1] (setting [2]).

On to `OCC(F)CNc1cc(Cl)c(Cl)c2[nH]cc(-c3cn[nH]c3)c12` (stereo not drawn) [Example 187, 3-[[6,7-Dichloro-3-(1H-pyrazol-4-yl)-1H-indol-4-yl]amino]-2-fluoro-propan-1-ol], for which the IC50 at recombinant human cGAS is 0.0104 µM; in assay [1] (setting [2]), 0.326 µM.

For `FC(F)CCNc1cc(Cl)c(Cl)c2[nH]cc(-c3cn[nH]c3)c12` [Example 188, 6,7-Dichloro-N-(3,3-difluoropropyl)-3-(1H-pyrazol-4-yl)-1H-indol-4-amine], the IC50 at recombinant human cGAS amounted to 0.0541 µM; in assay [1] (setting [2]), 2.45 µM.

Take `CC(C)(O)C(=O)NC1CCc2c(-c3cn[nH]c3)c3ccc(Cl)c(Cl)c3n2C1` (stereo not drawn) [Example 189, N-[3,4-Dichloro-10-(1H-pyrazol-4-yl)-6,7,8,9-tetrahydropyrido[1,2-a]indol-7-yl]-2-hydroxy-2-methyl-propanamide]: the IC50 on recombinant human cGAS came to 0.0272 µM; in assay [1] (setting [2]), 1.89 µM.

Regarding `O=C(NC1CCc2c(-c3cn[nH]c3)c3ccc(Cl)c(Cl)c3n2C1)C1(O)CCOCC1` (stereo not drawn) [Example 190, N-[3,4-Dichloro-10-(1H-pyrazol-4-yl)-6,7,8,9-tetrahydropyrido[1,2-a]indol-7-yl]-4-hydroxy-tetrahydropyran-4-carboxamide], the IC50 on recombinant human cGAS came out at 0.0361 µM; in assay [1] (setting [2]), 2.19 µM.
